Consider two compounds from publication PMC3891892 (Nature, 2013).

In brackets after ≈: the same amount, converted by molar mass.

For assay [1], the system named is CA04 (A/California/04/2009; H1N1). The experiment in a line: microbe, parasite or virus in culture. Format: cell-based. The note with it: Influenza A virus, H1N1, MDCK, read-out: IC50, plaque reduction assay.
Another assay concerns CA04. The arrangement: species or system mice. To be noted: mouse, in vivo, po.
Assay [2] concerns recombinant virus possessing Hangzhou/1 HA. It counts as binding, influenza A virus (H7N9).

With `NC(=O)c1nc(F)c[nH]c1=O` [favipiravir], in assay [1], the 50% inhibitory concentration (IC50) stood at 1.2 µg/mL (≈ 7.64 µM). Besides, the therapeutic effectiveness entry with CA04 was “clear therapeutic effectiveness”. Turning to `CC(=O)N[C@H]1[C@H]([C@H](O)[C@H](O)CO)OC(C(=O)O)=C[C@@H]1N=C(N)N` [Zanamivir, zanamivir], in assay [2], the “effect of inhibition of NA enzymatic function on glycan binding” value was “substantial increases in binding to α2–3 linked sialosides”.
